Like-named read-outs stand apart in the source and are kept apart here.
What was measured:
[1] = system: adult S. mansoni worm pairs; test: Screening of adult S. mansoni blood flukes (7-week worms), WHO-TDR motility scoring; type: cell-based, Schistosoma mansoni; conditions: for effect on adult worm motility/lethality: highest dose 20 μM; for effect on adult worm motility/lethality / EC50: 72 hr; for EC50: 7-week worms, motility, 95% confidence interval
Protocol: (§1) Adult S. mansoni parasites were recovered by hepatic portal vein perfusion from TO outbred mice (HsdOla:TO, Tuck-Ordinary, Envigo, UK) that were percutaneously infected seven weeks earlier with 180 cercariae. Three adult worm pairs per well, in duplicate, were transferred into 48 well plates (Fisher Scientific, Loughborough, UK) and cultured at 37 °C in an atmosphere containing 5% CO2 in DMEM (Gibco, Paisley, UK) containing 10% v/v HEPES, 10% v/v Foetal Bovine Serum (FBS), 0.7% v/v 200 mM L-Glutamine and 1X v/v penicillin-streptomycin. Worms were dosed with test compounds at 20 μM, 10 μM, 5 μM, 2.5 μM, 1.25 μM and 0.625 μM (in 0.2% DMSO) for 72 hr. Adult worms were scored manually at 72 hr using the WHO-TDR metric scoring system as described previously. Dose response curves and EC50 values were obtained by non-linear regression, after log transformation of concentrations and data normalization using GraphPad Prism 7.02. At 72 hr, the medium from each well was also collected, centrifuged at 350 x g for 2 min. Afterwards, the supernatant was removed, and the remaining egg pellet re-suspended in 10% v/v formalin. Eggs that were oval and contained a fully formed lateral spine were subsequently counted.
(§2) Fig 3 Adult schistosome motility and egg production are differentially affected by the nine N-acyl homoserine lactones. […] Parasite motility was evaluated for each sex and scored using the WHO-TDR scoring system (0 = Dead parasite, 4 = Normal/Healthy movement). B) Culture media were collected from some adult co-cultures at 72 hrs and eggs present in the media were counted. p values are indicated as follows: * <0.05, ** <0.01, *** <0.001.
Initially, these screens were conducted at 20 μM; any compounds that scored a 1 or 0 for motility at this primary concentration were further titrated until no further effect was observed. […] Similar to the schistosomula assays, the differences observed in adult parasite motility when treated with the (R)- and (S)- enantiomers of Compound 1 were striking. […] Estimated EC50s for male and female parasites for these two enantiomers were determined (Table 2), with Compound 5 ((R)- enantiomer) having greater activity than Compound 6 ((S)- enantiomer).

[2] = Cell cytotoxicity assay (MTT); type: cell-based, human; conditions: human, HepG2 cells, MTT, 95% confidence interval, called EC50
Protocol: The cytotoxicity of each compound was assessed on human HepG2 cells as described previously [17]. Briefly, 2 x 10^4 cells/well were seeded in black walled 96-well microtiter plates (Fisher Scientific, Loughborough, UK) and incubated for 24 hr at 37°C in a humidified atmosphere containing 5% CO2. […] Following a further incubation for 24 hr, the MTT assay was performed as previously described [17, 27]. Dose response curves were obtained by non-linear regression, after log transformation of concentrations and data normalization using GraphPad Prism 7.02.

S. mansoni schistosomula = test: Screening of S. mansoni schistosomula (Roboworm, motility and phenotype); type: cell-based, Schistosoma mansoni; conditions: for Selectivity index, schistosomula motility: HepG2 CC50 / schistosomula motility EC50; for Selectivity index, schistosomula phenotype: HepG2 CC50 / schistosomula phenotype EC50; for EC50: Schistosoma mansoni
Protocol: Biomphalaria glabrata (NMRI and the previously described pigmented strains) snails infected with S. mansoni (Puerto Rican strain) were shed for 2 hrs under light at 26 °C. Cercariae were collected, mechanically transformed into schistosomula and subsequently prepared for high throughput screening (HTS) on the Roboworm platform as previously described. Schistosomula were cultured in Basch Media (composed of BME media, 10% M169 media, 0.5x MEM vitamins, 10% Schneider’s insect media, 15.6mM Hepes, 5% heat inactivated FBS, 2x Antibiotic/anti-mycotic (Sigma-Aldrich, UK) solution (final concentrations shown)).
EC50 values were calculated from the titrated concentrations by non-linear regression, after log transformation of concentrations and data normalization using GraphPad Prism 7.02.
Fig 2 Anti-schistosomula activity of the eight analogues compared to parent compound 1. […] Test plates were incubated at 37°C for 72 hrs in an atmosphere containing 5% CO2. At 72hrs, schistosomula were scored using the Roboworm platform for both motility (A) and phenotype (B). Any compound that induced a score of below -0.35 for motility (A) and -0.15 for phenotype (B) were considered a hit. Black squares indicate the most positive effect on motility or phenotype; grey scale from dark grey to lighter shades of grey indicates a progressive reduced compound efficacy; white squares indicate no effect on either phenotype or motility. Z´ values for this screen was 0.41741 for motility and 0.57275 for phenotype. (C) Phenotypes of schistosomula when treated with 10μM of each of the test compounds and controls.
Supplementary file pntd.0008630.s003.tif: S1 Fig Initial schistosomula screens of the 14 compounds and their intermediate analogues. […] Test plates were incubated at 37°C for 72 hrs in an atmosphere containing 5% CO2. At 72hrs, schistosomula were scored using the Roboworm platform for both motility and phenotype as previously described. A) Of the 14 compounds evaluated, two fell within the hit region. Z’ scores for motility and phenotype were 0.40079 and 0.56846 respectively. […] Z´ scores for motility and phenotype were 0.37864 and 0.47882 respectively. *Average EC50 value across motility and phenotype is presented for each compound. (TIF) Click here for additional data file.

E. coli ATCC 25922 = test: Broth microdilution MIC and IC50 determination, E. coli; type: cell-based; conditions: Escherichia coli, ATCC25922, 24 h, 24 hr
Protocol: (§3) S. aureus ATCC 29213 and E. coli ATCC 25922 were cultured in Luria-Bertani (LB) medium at 37°C with aeration at 200 rpm for 24 hr, with all procedures performed in a biosafety level 2 (BSL2) cabinet. Stationary phase cultures were then used for minimum inhibitory concentration (MIC) determination using the broth microdilution method, in fresh LB medium, in a 96-well plate. All compounds were tested in triplicate using an initial bacterial concentration of 5.0 × 10^5 colony forming units (CFU)/mL at a final concentration of 125 mg/L (5% and 2.5% v/v methanol). Compounds with no visible growth at 125 mg/L were further evaluated with progressing dilutions. […] Dilutions were repeated in three independent experiments where the optical density (OD600) was measured in a Hidex plate spectrophotometer and absorbance data used for the calculation of an IC50 value. The IC50 value was obtained from a dose response titration (125–0.09 mg/L). Dose response curves were obtained by non-linear regression, after log transformation of concentrations and data normalization using GraphPad Prism 7.02.
(§4) As Compound 1 was structurally similar to N-acyl homoserine lactones, a compound class involved in bacterial quorum sensing, we decided to assess its antimicrobial activity and determine if enantiomer separation or lactone ring substitution would change this activity.

S. aureus ATCC 29213 = test: Broth microdilution MIC and IC50 determination, S. aureus; type: cell-based, Staphylococcus aureus; conditions: Staphylococcus aureus, ATCC29213, 24 h, 24 hr
Protocol: as §3, §4

[3] = system: adult S. mansoni worm pairs (egg production); test: In vitro egg production of adult S. mansoni worm pairs; type: cell-based, Schistosoma mansoni; conditions: 72 hr, compared to DMSO
Protocol: as §1, §2
As morbidity associated with schistosomiasis is caused by egg-induced granuloma formation in tissues and the subsequent development of fibrotic lesions around these granulomas, compound-mediated modulation of in vitro egg production (as a surrogate for the in vivo pathology initiator) was next assessed (Fig 3B). […] In comparison to the negative control DMSO, in which egg counts ranged from 300–594 (Average—408), all N-Acyl homoserine lactones affected fecundity.

[4] = system: juvenile S. mansoni worms; test: Propidium iodide (PI) staining of juvenile S. mansoni worms; type: cell-based, Schistosoma mansoni; conditions: 15 μM, 72 hrs
Protocol: Juvenile S. mansoni parasites were recovered via hepatic portal vein perfusion from TO outbred mice (HsdOla:TO, Tuck-Ordinary, Envigo, UK) that were infected percutaneously three weeks earlier with 4000 cercariae. Preparation and centrifugation of juvenile worms have been described previously. […] After motility quantification, 2 μg/mL of PI was added to each well and the plate returned to 37°C, 5% CO2 for 15 minutes. Each well was subsequently imaged on the Roboworm platform using brightfield and fluorescent microscopy (excitation wavelength = 580 nm; emission wavelength = 604 nm). The number of PI positive vs PI negative juvenile worms were cross-checked with the motility scores obtained by our scoring matrix, and the data reported as percentage of PI positive across all parasites within the well. EC50 values were calculated from the motility scores obtained from the dose response titration (as detailed above) and dose response curves were obtained by non-linear regression, after log transformation of concentrations and data normalization using GraphPad Prism 7.02.
Three week juvenile schistosomes, incubated with compounds (1), (3) or controls for 72 hrs, were subsequently cultured with PI at a final concentration of 2 μg/mL for 15 minutes at 37 °C in an environment containing 5% CO2. PI positive parasites (dead) were counted and the percent live vs dead in each well is indicated. A) Quantification of compound (1) mediated juvenile death. B) Quantification of compound (3) mediated juvenile death.

[5] = 72 hrs, 95% confidence interval, read-out: SCHISTOSOMULA EC50 Motility
[6] = 72 hrs, 95% confidence interval, read-out: SCHISTOSOMULA EC50 Phenotype
[7] = Schistosoma mansoni, read-out: ADULT WORM EC50 Female
[8] = Schistosoma mansoni, read-out: ADULT WORM EC50 Male

SMILES | effect on adult worm motility/lethality [1] | CC50 at 24 h [2] | EC50 (S. mansoni schistosomula; [5]) | EC50 (S. mansoni schistosomula; [6]) | EC50 [1, 7] | EC50 [1, 8] | further results
CC(Cl)C(=O)NC1CCOC1=O (centres unmarked) [Compound 9, 2-chloro-N-(2-oxotetrahydrofuran-3-yl)propanamide] | No lethality/motility defects were observed | – | – | – | – | – | –
O=C(CCl)NC1CCSC1=O (centres unmarked) [Compound 8, 2-chloro-N-(2-oxotetrahydrothiophen-3-yl)acetamide] | No lethality/motility defects were observed | – | – | – | – | – | –
O=C(CCl)NC1CCOC1=O (centres unmarked) [Compound 7, 2-chloro-N-(2-oxotetrahydrofuran-3-yl)acetamide] | No lethality/motility defects were observed | – | – | – | – | – | –
O=C(CBr)N[C@@H]1CCOC1=O [Compound 5, (R)-2-bromo-N-(2-oxotetrahydrofuran-3-yl)acetamide] | complete immobility | 50.6 µM | 3.1 µM | 4 µM | > 10 µM | > 10 µM | Selectivity index, schistosomula motility (S. mansoni schistosomula): 16.3; Selectivity index, schistosomula phenotype (S. mansoni schistosomula): 12.7; MIC (E. coli ATCC 25922; no visible growth): 125 µg/mL; MIC (E. coli ATCC 25922; value in square brackets): 563 µM; MIC (S. aureus ATCC 29213; no visible growth): 125 µg/mL; MIC (S. aureus ATCC 29213; value in square brackets): 563 µM; effect on egg production (fecundity) [3]: reduced egg production
O[C@H]([C@H](O)COC(c1ccccc1)(c1ccccc1)c1ccccc1)[C@@H](O)COC(c1ccccc1)(c1ccccc1)c1ccccc1 [Compound E, (2R,3s,4S)-1,5-bis(trityloxy)pentane-2,3,4-triol] | – | – | – | – | – | – | effect on schistosomula motility and phenotype metrics in initial screen (S. mansoni schistosomula; 10 μM, 72 hrs): negatively affected both schistosomula motility and phenotype metrics; EC50 (S. mansoni schistosomula; 72 h, read-out: average EC50 for phenotype and motility, schistosomula): 5.6 µM
CC(Br)C(=O)NC1CCSC1=O (centres unmarked) [Compound 4, 2-bromo-N-(2-oxotetrahydrothiophen-3-yl)propanamide] | only demonstrated lethality at the highest concentration | – | – | – | 18.4 µM | 10.5 µM | Selectivity index, schistosomula motility (S. mansoni schistosomula): 15.4; Selectivity index, schistosomula phenotype (S. mansoni schistosomula): 14.4; EC50 ([1]; read-out: ADULT WORM EC50 Female): > 10 µM; EC50 ([1]; read-out: ADULT WORM EC50 Male): > 10 µM
CC(=O)OC[C@H]1O[C@@H]([S-])[C@H](OC(C)=O)[C@@H](OC(C)=O)[C@@H]1OC(C)=O.CCP(CC)CC.[Au+] [auranofin, reference compound] | – | – | – | – | – | – | Percent P.I positive parasites [4]: 100%
CC(Br)C(=O)NC1CCOC1=O (centres unmarked) [Compound 2, 2-bromo-N-(2-oxotetrahydrofuran-3-yl)propanamide] | no activity | > 200 µM | > 10 µM | > 10 µM | > 20 µM | > 20 µM | –
O=C(CBr)N[C@H]1CCOC1=O [Compound 6, (S)-2-bromo-N-(2-oxotetrahydrofuran-3-yl)acetamide] | did not have this effect | > 100 µM | > 10 µM | > 10 µM | > 20 µM | – | anti-schistosomula activity (phenotype and motility) (S. mansoni schistosomula; titration 10 to 0.625 μM, 72 hrs): no anti-schistosomula activity was observed; MIC (E. coli ATCC 25922; no visible growth): > 125 µg/mL; MIC (E. coli ATCC 25922; value in square brackets): > 563 µM; MIC (S. aureus ATCC 29213; no visible growth): > 125 µg/mL; MIC (S. aureus ATCC 29213; value in square brackets): > 563 µM; effect on egg production (fecundity) [3]: reduced egg production; Selectivity index, adult worm male ([1]; HepG2 CC50 / adult male EC50): 6.3
